Experimental data as given in PMC9710854 (Chemical communications (Cambridge, England), 2022).

Experiments:
[1] = system: MM.1S cells; assay: Cell viability of MM.1S cells after 24 h treatment; assay type: cell-based
[2] = Plasma protein binding estimated by an HPLC-based method; assay type: in vitro ADME
[3] = molecular target: USP7 catalytic domain (Homo sapiens, UniProt Q93009); assay: USP7 inhibition with isolated USP7 catalytic domain using Ub-AMC as a substrate; assay type: biochemical
[4] = Experimental partition coefficient; assay type: physicochemical

Chain of USP7 catalytic domain (Q93009 214-521 limits assumed): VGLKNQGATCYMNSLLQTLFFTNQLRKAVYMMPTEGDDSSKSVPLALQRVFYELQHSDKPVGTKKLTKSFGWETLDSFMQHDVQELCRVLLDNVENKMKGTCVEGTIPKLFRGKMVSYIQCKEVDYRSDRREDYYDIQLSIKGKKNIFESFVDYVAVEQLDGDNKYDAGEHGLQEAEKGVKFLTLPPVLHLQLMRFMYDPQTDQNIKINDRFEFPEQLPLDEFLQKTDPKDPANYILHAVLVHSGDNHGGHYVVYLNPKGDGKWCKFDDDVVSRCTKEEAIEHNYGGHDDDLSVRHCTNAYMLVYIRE

fraction unbound ([2]; plasma)	IC50 [3]	logD [4]	PPB ([2]; plasma protein binding, estimated by an HPLC-based method)	Compound	viability at 10 µM ([1]; Homo sapiens, MM1.S, read-out: cell viability)	cell viability ([1]; remaining viability, MM.1S cells, 10 μM)
0.1	32 ± 7 nM	2.5	–	O=C(C[C@@H](C(F)F)n1ccc(F)n1)N1CCC(O)(Cn2cnc3c(cnn3-c3ccc(F)cc3)c2=O)CC1 [Compound 2, FT671]	41%	–
–	–	1.3	87%	C[C@H](CC(=O)N1CCC(O)(Cn2cnc3cc(NC(=O)CCN4CCN(C)CC4)ccc3c2=O)CC1)c1ccccc1 [Compound 3, XL188]	–	43%
